The values that follow come from US20240246967A1, “AXL COMPOUNDS” (ARCUS BIOSCIENCES, INC., priority 2021, published 2024).

pIC50: −log10 of the molar value.

The assay concerns the target T1, human TYRO3 (Homo sapiens, UniProt Q06418).
T1 construct: purchased Invitrogen
T1 sequence (Q06418 41-890): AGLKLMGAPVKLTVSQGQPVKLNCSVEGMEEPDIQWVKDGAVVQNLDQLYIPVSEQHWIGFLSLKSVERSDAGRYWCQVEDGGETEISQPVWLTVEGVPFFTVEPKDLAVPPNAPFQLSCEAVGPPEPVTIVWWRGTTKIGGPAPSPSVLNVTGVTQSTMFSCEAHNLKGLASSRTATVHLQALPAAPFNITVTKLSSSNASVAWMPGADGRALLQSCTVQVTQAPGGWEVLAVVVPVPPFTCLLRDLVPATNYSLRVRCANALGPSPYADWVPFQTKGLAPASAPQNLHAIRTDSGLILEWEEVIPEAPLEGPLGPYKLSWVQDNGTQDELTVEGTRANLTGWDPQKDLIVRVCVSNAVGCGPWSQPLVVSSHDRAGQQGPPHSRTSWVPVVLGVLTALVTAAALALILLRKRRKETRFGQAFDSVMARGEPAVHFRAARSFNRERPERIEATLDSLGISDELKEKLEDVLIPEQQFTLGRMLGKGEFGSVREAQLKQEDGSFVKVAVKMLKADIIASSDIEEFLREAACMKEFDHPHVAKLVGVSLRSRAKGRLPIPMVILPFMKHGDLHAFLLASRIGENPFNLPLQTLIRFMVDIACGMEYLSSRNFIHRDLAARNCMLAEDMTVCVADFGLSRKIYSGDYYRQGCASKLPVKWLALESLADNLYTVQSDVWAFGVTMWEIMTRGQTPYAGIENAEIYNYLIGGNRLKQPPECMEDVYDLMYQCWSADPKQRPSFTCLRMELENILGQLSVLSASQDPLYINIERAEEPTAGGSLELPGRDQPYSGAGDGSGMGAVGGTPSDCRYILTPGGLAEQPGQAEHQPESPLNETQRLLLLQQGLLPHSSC
Kind of assay: HTRF KinEASE-TK biochemical potency assay, TYRO3. Particulars: 1 nM TYRO3, 700 μM ATP, 800 nM TK Substrate-biotin. In a few lines:
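Enzyme (final 5 nM AXL; 1 nM TYRO3 or MER) plus compound, 1 h RT → add biotinylated TK substrate (800 nM final) and ATP (700 μM final) → 2 h RT → stop into HTRF detection mix → read 665/620 nm. Activity normalised to DMSO and pre-stopped blanks.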
(In general: In TR-FRET formats the signal depends on donor and acceptor labels being close together.)
A word on the pIC50: it is the negative decadic logarithm of the IC50, by convention in mol/L. Low readings indicate a high IC50, high ones a low IC50. `NS(=O)(=O)c1ccc(-c2n[nH]c3ncc(-c4ccc5c(c4)CC[C@@H](N4CCCC4)CC5)cc23)cc1Cl` [Example 91, (S)-2-Chloro-4-(5-(7-(pyrrolidin-1-yl)-6,7,8,9-tetrahydro-5H-benzo[7]annulen-2-yl)-1H-pyrazolo[3,4-b]pyridin-3-yl)benzenesulfonamide] gave a pIC50 above 7.00.

With `NS(=O)(=O)c1ccc(-c2n[nH]c3ncc(-c4ccc5c(c4)CCN(C4CCCC4)CC5)cc23)cc1Cl` [Example 92, 2-Chloro-4-(5-(3-cyclopentyl-2,3,4,5-tetrahydro-1H-benzo[d]azepin-7-yl)-1H-pyrazolo[3,4-b]pyridin-3-yl)benzenesulfonamide], the pIC50 was 6.00 to 7.00.

In turn, `C[C@@H]1CCCN1C1(C)CCc2ccc(-c3cnc4[nH]nc(-c5ccc(S(N)(=O)=O)c(Cl)c5)c4c3)cc2CC1` (stereo partly drawn) [Example 93, 2-Chloro-4-(5-(7-methyl-7-((R)-2-methylpyrrolidin-1-yl)-6,7,8,9-tetrahydro-5H-benzo[7]annulen-2-yl)-1H-pyrazolo[3,4-b]pyridin-3-yl)benzenesulfonamide] showed a pIC50 above 7.00.
